Laboratory results from patent US20090047278A1, “Novel Combinational Use of Sulfonamide Compound” (Eisai R & D Management Co., Ltd., priority 2005, published 2009).

Legend:
HCT116 cells = experiment: DNA microarray analysis of gene expression changes, correlation and cluster analysis (Example 8); format: cell-based, human; settings: HCT116, 24 hours, at twice the 50% growth inhibitory concentration; different from profiles of the other six compounds
Procedure: HCT116 cells were cultured in an RPMI-1640 medium supplemented with 10% fetal bovine serum, 100 units/ml penicillin and 100 μg/ml streptomycin. The following cultivation and compound treatment were carried out in an incubator at 5% CO2 and 37° C. HCT116 cells were seeded in 10 cm-diameter cell culture dishes at 2.0×10^6 cells/dish, cultured for 24 hours and subjected to the following compound treatment.
In this example, changes in the gene expression of HCT116 cells upon treatments with 12 compounds, i.e., E7820 (0.16 μM), E7070 (0.26 μM), LY186641 (59 μM), LY295501 (24 μM), LY-573636 (9.6 μM), CQS (4.0 μM), MST16 (100 μM), etoposide (3.6 μM), ethoxzolamide (410 μM), capsaicin (280 μM), trichostatin A (0.16 μM) and kenpaullone (7.1 μM) were examined.
The concentration of each compound used for the treatment was set to twice the 50% growth inhibitory concentration of each compound to the HCT116 cells (based on three days of antiproliferative activity using MTT). The cells were collected 24 hours after the treatment at the concentration indicated in parentheses following each compound name above. Similarly, cells cultured for 24 hours without the addition of any compound were also collected.
Total RNA extraction from the collected cells was performed using TRIZOL reagent (Invitrogen) according to the attached instruction.
Gene expression analysis using a DNA microarray was carried out in the same manner as “(2) Analysis of gene expression using DNA microarray” in Example 7.
This example was conducted for each sample in duplicate (for the convenience of the experiment, samples were given branch numbers like control-1, control-2, E7070-1, E7070-2 and so on for distinction). Then, GeneChip (Affymetrix) system (Human Focus array) was used for analyzing changes in the gene expression induced by each compound.
Twenty-six “.cel” files obtained in this example (13 samples (a control+12 compounds)×2) were subjected to RMA method (robust multi-array average method (Biostatistics (2003), 4, 249-264)) for normal distribution at probe level, and then the logarithm value of the signal intensity at gene level was calculated. Next, the logarithm value of the signal intensity of the untreated group (control-1) was subtracted from the logarithm value of the signal intensity of the compound-treated group for each gene to obtain the logarithm value of the signal ratio of the compound-treated group to control-1. Then, cosine correlation coefficients were calculated as correlation coefficients between the experiments (FIG. 9). Based on these correlation coefficients, hierarchical cluster analysis was performed according to UPGMA method (Unweighted Pair Group Method with Arithmetic mean method) (FIG. 10). Control-2 was also subjected to similar calculation (FIGS. 11 and 12). The softwares used were R 2.0.1 (http://www.r-project.org/) and affy package 1.5.8 (http://www.bioconductor.org).

[1] = system: human colon cancer cell line (WiDr); experiment: E7820 and cetuximab in subcutaneous transplant model of WiDr; format: in vivo; settings: WiDr s.c. in nude mouse; E7820 oral 50 mg/kg twice a day, cetuximab i.p. 100 mg/kg twice a week, 2 weeks; Day 1 = first administration
Procedure: Human colon cancer cell line WiDr (obtained from Dainippon Pharmaceutical) was cultured in RPMI1640 (containing 10% FBS) in a 5% carbon dioxide incubator at 37° C. to about 80% confluence, and the cells were collected with trypsin-EDTA. Using a phosphate buffer, 5×10^7 cells/mL suspension was prepared, and 0.1 mL each of the resulting cell suspension was subcutaneously transplanted to a nude mouse at the side of its body.

[2] = system: human renal cancer cell line (ACHN); experiment: E7820 and cetuximab in subcutaneous transplant model of ACHN; format: in vivo; settings: ACHN s.c. in nude mouse; E7820 oral 50 mg/kg twice a day, cetuximab i.p. 100 mg/kg twice a week, 2 weeks; Day 1 = first administration
Procedure: Human renal cancer cell line ACHN (obtained from Dainippon Pharmaceutical) was cultured in RPMI1640 (containing 10% FBS) in a 5% carbon dioxide incubator at 37° C. to about 80% confluence, and the cells were collected with trypsin-EDTA. Using a phosphate buffer, 1×10^8 cells/mL suspension was prepared, and 0.1 mL each of the resulting cell suspension was subcutaneously transplanted to a nude mouse at the side of its body.
Tumor Volume TV=Major axis of tumor(mm)×(Minor axis of tumor)^2 (mm^2)/2

[3] = system: human non-small-cell lung cancer cell line (PC9); experiment: E7820 and gefitinib in subcutaneous transplant model of PC9; format: in vivo; settings: PC9 s.c. in nude mouse; oral; E7820 50 mg/kg twice a day, gefitinib 75 mg/kg once a day, 2 weeks; Day 1 = first administration
Procedure: (§1) Using a phosphate buffer, 5×10^7 cells/mL suspension was prepared, and 0.1 mL each of the resulting cell suspension was subcutaneously transplanted to a nude mouse at the side of its body. Eight days after the transplantation, E7820 and gefitinib were orally administered alone or in combination for 50 mg/kg twice a day for 2 weeks and for 75 mg/kg once a day for 2 weeks, respectively. The major and minor axes of tumors were measured with Digimatic caliper (Mitsutoyo), and tumor volumes and relative tumor volumes were calculated according to the following formulae.
(§2) Tumor Volume TV=Major axis of tumor(mm)×(Minor axis of tumor)^2(mm^2)/2
(§3) Relative Tumor Volume RTV=Tumor volume on measurement day/Tumor volume on the first administration day

[4] = system: human non-small-cell lung cancer cell line (A549); experiment: E7820 and erlotinib in subcutaneous transplant model of A549; format: in vivo; settings: A549 s.c. in nude mouse; oral; E7820 50 mg/kg twice a day, erlotinib 100 mg/kg once a day, 2 weeks; Day 1 = first administration
Procedure: as §1, with “Human non-small-cell lung cancer cell line A549 (purchased from Dainippon Pharmaceutical) was cultured in RPMI1640 (containing 10% FBS) in a 5% carbon dioxide incubator at 37° C. to about 80% confluence, and the cells were collected with trypsin-EDTA. Using” for “Using”, “buffer containing 50% matrigel,” for “buffer,”, “Seventeen” for “Eight”, “erlotinib” for “gefitinib”, “100” for “75”
as §2, §3

[5] = system: human non-small-cell lung cancer cell line (A549); experiment: E7820 and gefitinib in subcutaneous transplant model of A549; format: in vivo; settings: A549 s.c. in nude mouse; oral; E7820 50 mg/kg twice a day, gefitinib 75 mg/kg once a day, 3 weeks; Day 1 = first administration
Procedure: as §1, with “Human non-small-cell lung cancer cell line A549 (purchased from Dainippon Pharmaceutical) was cultured in RPMI1640 (containing 10% FBS) in a 5% carbon dioxide incubator at 37° C. to about 80% confluence, and the cells were collected with trypsin-EDTA. Using” for “Using”, “phosphate buffer containing 50% matrigel,” for “phosphate buffer,”, “body. Ten” for “body. Eight”, “for 3” for “for 2”
Tumor Volume TV=Major axis of tumor(mm)×(minor axis of tumor)^2(mm^2)/2
as §3

HCT116-C9 = experiment: Cross-resistance in E7070-resistant cell line, antiproliferative activity by MTT method; format: cell-based, human; settings: Example 11, 72 hours
Procedure: An E7070-resistant cell line was used to assess the antiproliferative activities of E7820, LY186641, LY295501, LY-ASAP and CQS. HCT116-C9 was a substrain separated from human colon cancer-derived HCT116 (American Type Culture Collection, Manassas, Va., U.S.A.). This HCT116-C9 was cultured in the presence of E7070 while increasing the E7070 concentration by degrees, thereby obtaining E7070-resistant substrains HCT116-C9-C1 and HCT116-C9-C4 (Molecular Cancer Therapeutics, 2002, 1, 275-286).
Three cell lines, i.e., HCT116-C9, HCT116-C9-C1 and HCT116-C9-C4, were each seeded at 3000 cells/well onto a 96-well microplate (flat bottom) (50 μl/well). Twenty-four hours later, they were added with a 3-fold dilution series of each compound (50 μl/well). Seventy-two hours later, the antiproliferative activities were assessed by MTT method (Mossmann T., J. Immunol. Methods, 1983, 65, 55-63). The 50% growth inhibitory concentrations to the cancer cells were obtained by a least square method.
In exactly the same manner as in Example 10, an E7070-resistant cell line was used to assess the antiproliferative activities of LY573636 as well as those of E7070.

`Cc1ccc(NS(=O)(=O)c2cccc(C#N)c2)c2[nH]cc(C#N)c12` [E7820, N-(3-cyano-4-methyl-1H-indole-7-yl)-3-cyanobenzenesulfonamide] was tested, and the “similarity of changes in gene expression (cosine correlation, cluster analysis) among E7070, E7820, LY186641, LY295501, LY573636 and CQS” value (“similarity of changes in gene expression” for short) (HCT116 cells) was “very similar genetic alterations”, the “Relative tumor volume on Day 15 Average ± standard deviation” value [1] was 3.3 ± 0.6 and the “Relative tumor volume on Day 15 Average ± standard deviation” value [2] was 1.3 ± 0.2. The “Relative tumor volume on Day 15 Average ± standard deviation” value [3] was 2.57 ± 0.41, the “Relative tumor volume on Day 15 Average ± standard deviation” value [4] was 2.62 ± 0.07 and the “Relative tumor volume on Day 22 Average ± standard deviation” value [5] was 3.69 ± 0.68.
In the case of `NS(=O)(=O)c1ccc(S(=O)(=O)Nc2cccc3c(Cl)c[nH]c23)cc1` [E7070, N-(3-chloro-1H-indole-7-yl)-4-sulfamoylbenzenesulfonamide], the “similarity of changes in gene expression” value (HCT116 cells) is reported as “very similar genetic alterations” and the IC50 (HCT116-C9) is reported as 127 nM.
`Nc1ccc(S(=O)(=O)Nc2cnc3c(Cl)cccc3n2)cc1` [CQS, 2-sulfanylamide-5-chloroquinoxaline] was tested, and the “similarity of changes in gene expression” value (HCT116 cells) was “very similar genetic alterations”.
`O=C(Nc1ccc(Cl)cc1)NS(=O)(=O)c1ccc2c(c1)CCC2` [LY186641, N-[[(4-chlorophenyl)amino]carbonyl]-2,3-dihydro-1H-indene-5-sulfonamide] was tested, and the “similarity of changes in gene expression” value (HCT116 cells) was “very similar genetic alterations”.
For `COc1cc2ncnc(Nc3ccc(F)c(Cl)c3)c2cc1OCCCN1CCOCC1` [Gefitinib, 4-(3-chloro-4-fluorophenylamino)-7-methoxy-6-(3-(4-morpholino)propoxy-quinazoline), reference compound], the “Relative tumor volume on Day 15 Average ± standard deviation” value [3] was 0.36 ± 0.12 and the “Relative tumor volume on Day 22 Average ± standard deviation” value [5] was 2.26 ± 0.59.
`O=C(Nc1ccc(Cl)c(Cl)c1)NS(=O)(=O)c1ccc2c(c1)CCO2` [LY295501, N-[[(3,4-dichlorophenyl)amino]carbonyl]-2,3-dihydrobenzofuran-5-sulfonamide] was tested, and the “similarity of changes in gene expression” value (HCT116 cells) was “very similar genetic alterations”.
In the case of `O=C(NS(=O)(=O)c1ccc(Br)s1)c1ccc(Cl)cc1Cl` [LY573636, N-(2,4-dichlorobenzoyl)-5-bromothiophene-2-sulfonamide], the “similarity of changes in gene expression” value (HCT116 cells) is reported as “very similar genetic alterations”.
`C#Cc1cccc(Nc2ncnc3cc(OCCOC)c(OCCOC)cc23)c1` [Erlotinib, 4-(3-ethynylphenylamino)-6,7-bis(2-methoxyethoxy)-quinazoline, reference compound] was tested, and the “Relative tumor volume on Day 15 Average ± standard deviation” value [4] was 1.94 ± 0.19.
